Data taken from paper PMC9223764, “In Vitro Selection and Characterization of HIV-1 Variants with Increased Resistance to LP-40, Enfuvirtide-Based Lipopeptide Inhibitor” (International Journal of Molecular Sciences, 2022).
Where two headings read alike, the source gives them in different places. Where a SMILES comes first, the peptide text is derived from it. The star is where a group is joined. Palmitoyl = CCCCCCCCCCCCCCCC(=O)*

Key:
[1] = system: HIV-1 NL4-3 gp41 I69V pseudovirus; assay type: cell-based; conditions: for Fold change in IC50: I69V relative to WT NL4-3
NL4-3D36G virus = conditions: single infection inhibition experiment; cited from earlier work
Procedure: However, it requires frequent and high doses (90 mg, twice a day), and resistance is easily acquired. The TRM of the T20 carboxy-terminal, also known as the MPER (membrane proximal external region), is rich in […] sequences ([…]). Therefore, it is highly hydrophobic (Figure 1).

HIV-1 NL4-3 = assay: In vitro selection of resistant virus, dose-escalating passages in C8166 cells; assay type: cell-based; conditions: 1.5- to 2-fold increase per passage, start 0.5 µM T20, 0.04 µM LP-40
Procedure: To determine the resistance profile of LP-40, LP-40-resistant variants were selected using a dose-escalating method. The selection for drug-resistant HIV-1NL4-3 commenced with a concentration of 0.04 µM LP-40 (Figure 2B). Finally, after 32 passages, the induced concentration of LP-40 reached 200 µM. […] As shown in passage 9 (P-9), the concentration of LP-40 was 0.3 µM, and it can be observed that isoleucine was replaced by threonine at position 37 in the gp41 NHR coding region (I37T). G86D and C87Y were observed; at position 119 (E 119 G) in the gp41 CHR coding region, glutamate was replaced by glycine; at position 126 (N 126 K), asparagine was replaced by lysine. In P-24, the concentration of LP-40 was 8 µM; I37T in the NHR coding region was still present, and A15V, A21T, and L57H were also present, and N126K at position 126 in the CHR coding region was still present. In P-26, the concentration of LP-40 was 20 µM; at L33S, position 33 in the NHR coding region, leucine was replaced by serine and I37T remained. Additionally, a combination of mutations—E109N, N113D, E119Q, D121E, N125E, S129D, H132Y, and S133N (abbreviated as […])—appeared in the coding region of CHR. At a concentration of 200 µM, in addition to L33S and I37T, D36G, V38A, V38T, N42T, and I69V appeared in the NHR coding region, and a combination of the above eight mutations still existed in the CHR coding region. […]

## CCCCCCCCCCCCCCCC(=O)NCCCC[C@H](NC(=O)[C@H](CC(=O)O)NC(=O)[C@H](CC(C)C)NC(=O)[C@H](CCC(=O)O)NC(=O)[C@H](CC(C)C)NC(=O)[C@H](CC(C)C)NC(=O)[C@H](CCC(=O)O)NC(=O)[C@H](CCC(N)=O)NC(=O)[C@H](CCC(=O)O)NC(=O)[C@H](CC(N)=O)NC(=O)[C@H](CCCCN)NC(=O)[C@H](CCC(=O)O)NC(=O)[C@H](CCC(N)=O)NC(=O)[C@H](CCC(N)=O)NC(=O)[C@H](CC(N)=O)NC(=O)[C@H](CCC(N)=O)NC(=O)[C@H](CO)NC(=O)[C@H](CCC(=O)O)NC(=O)[C@H](CCC(=O)O)NC(=O)[C@@H](NC(=O)[C@H](CC(C)C)NC(=O)[C@H](CO)NC(=O)[C@H](Cc1c[nH]cn1)NC(=O)[C@@H](NC(=O)[C@H](CC(C)C)NC(=O)[C@H](CO)NC(=O)[C@@H](NC(=O)[C@H](Cc1ccc(O)cc1)NC(C)=O)[C@@H](C)O)[C@@H](C)CC)[C@@H](C)CC)C(N)=O [LP-40] (Ac-YTSLIHSLIEESQNQQEKNEQELLELDK(Palmitoyl)-NH2)
[1]; Table 2
  Fold change in IC50: 0.93 fold
[1]; Table 3
  Fold change in IC50: 1.08 fold
[1]; I69V, Table 2, TZM-bl cells, 48 h, luciferase, mean ± SD, triplicate, repeated three times
  IC50: 29.4 ± 4.59 nM
NL4-3D36G virus
  Improvement of antiviral IC50 compared to T20: approximately seven-fold
HIV-1 NL4-3
  Induced inhibitor concentration reached after 32 passages: 200 µM
